Data set [1] can be described thus: Selectivity ratio of Ki for ERbeta to Ki for ERalpha.
Data set [2] concerns Rattus norvegicus. The data set is described as follows: AUC (0 to 24 hrs) in rat at 10 mg/kg, po. The conditions noted are these: in vivo. Further details: time < 24 hr, dose 10 mg/kg, route oral. The class given is ADME, organism-based, Plasma.
The subject of a further data set is MCF7. Put plainly: Antiproliferative activity against human MCF7 cells after 48 hrs by [3H]-thymidine incorporation assay. It counts as functional, cell-based.
The nature of data set [3]: Cmax in rat at 10 mg/kg, po. The settings on record: in vivo. It counts as ADME, organism-based. The arrangement: dose 10 mg/kg, route oral.
The target in data set [4] is T1, Estrogen receptor (Homo sapiens, UniProt P03372).
T1 sequence (P03372 whole entry): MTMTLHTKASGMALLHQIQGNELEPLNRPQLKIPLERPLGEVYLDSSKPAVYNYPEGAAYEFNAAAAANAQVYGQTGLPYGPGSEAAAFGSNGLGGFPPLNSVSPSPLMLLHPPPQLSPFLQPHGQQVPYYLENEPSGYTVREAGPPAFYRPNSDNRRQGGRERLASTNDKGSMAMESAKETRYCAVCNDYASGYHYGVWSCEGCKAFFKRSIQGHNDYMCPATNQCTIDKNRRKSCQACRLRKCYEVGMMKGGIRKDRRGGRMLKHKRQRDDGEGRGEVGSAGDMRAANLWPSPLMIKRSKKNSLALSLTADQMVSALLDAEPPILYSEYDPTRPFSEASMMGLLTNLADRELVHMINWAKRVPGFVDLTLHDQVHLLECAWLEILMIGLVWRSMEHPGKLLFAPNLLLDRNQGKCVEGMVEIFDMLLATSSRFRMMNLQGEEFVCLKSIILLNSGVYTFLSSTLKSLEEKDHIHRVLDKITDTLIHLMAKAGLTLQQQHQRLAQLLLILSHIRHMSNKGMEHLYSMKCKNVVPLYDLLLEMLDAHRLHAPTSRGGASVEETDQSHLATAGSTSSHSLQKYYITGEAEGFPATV
The data set is described as follows: Displacement of [3H]estradiol from ERalpha after 4 hrs by scintillation counting.

The next data set concerns the target Estrogen receptor beta (Homo sapiens, UniProt Q92731). Put plainly: Displacement of [3H]estradiol from ERbeta after 4 hrs by scintillation counting.
Data set [5] addresses T1, Estrogen receptor. Put plainly: Binding affinity to ERalpha ligand binding domain.
The subject of data set [6] is Rattus norvegicus. Put plainly: […] Sprague-Dawley rat assessed as reduction of bone loss by measuring volumetric bone mineral density administered qd after 4 days post ovariectomy measured after 5 weeks. It counts as functional, organism-based.
In data set [7] the test system is Rattus norvegicus. Put plainly: Antiestrogenic activity in young Sprague-Dawley rat assessed as inhibition of estrogen-induced uterine hypertrophy at 0.01 to 1 mg/kg, po for 3 days. The class given is functional, organism-based.

Here are results for 1 molecule from ChEMBL document CHEMBL2046360, “Hydrophobic Interactions Improve Selectivity to ERα for Ben-zothiophene SERMs” (ACS Med Chem Lett, 2012).

SMILES strings stand for the structures. pIC50, pKi: −log10 of the molar value. The source made the active and inactive calls. No cut-off for these calls is given here.

Chain of Estrogen receptor beta (Q92731 whole entry, the tested form may be a part): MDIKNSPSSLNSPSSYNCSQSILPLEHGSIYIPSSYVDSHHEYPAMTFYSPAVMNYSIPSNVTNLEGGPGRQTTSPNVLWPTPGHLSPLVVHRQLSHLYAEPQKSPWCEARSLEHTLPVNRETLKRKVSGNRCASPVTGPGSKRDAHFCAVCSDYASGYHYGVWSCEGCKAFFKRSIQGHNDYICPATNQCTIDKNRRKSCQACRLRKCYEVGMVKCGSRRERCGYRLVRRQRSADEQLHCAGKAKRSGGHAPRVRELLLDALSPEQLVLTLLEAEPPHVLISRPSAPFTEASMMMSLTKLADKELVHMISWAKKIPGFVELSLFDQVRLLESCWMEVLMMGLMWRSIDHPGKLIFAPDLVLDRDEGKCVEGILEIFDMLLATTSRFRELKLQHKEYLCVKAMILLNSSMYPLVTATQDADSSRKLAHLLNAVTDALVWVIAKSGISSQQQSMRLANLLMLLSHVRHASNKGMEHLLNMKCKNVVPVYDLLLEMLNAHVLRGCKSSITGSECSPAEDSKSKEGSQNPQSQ

Consider `CCCCc1ccc(-c2sc3cc(O)ccc3c2C(=O)c2ccc(OCCN3CCCCC3)cc2)cc1`, for which the Ratio Ki in data set [1] was 140. This molecule showed an AUC with Rattus norvegicus [2] of 2337 ng·h/mL. Besides, in the data set with MCF7, the pIC50 was 7.48. This molecule yielded a Cmax in data set [3] of 210 ng/mL. The pKi is 9.60 on Estrogen receptor [4], 7.46 at Estrogen receptor beta and 9.60 on Estrogen receptor [5]. Also, in the data set on Rattus norvegicus [6], the Activity entry was “Dose-dependent effect”. Moreover, in the data set on Rattus norvegicus [7], the inhibition result is “Active”.
